Results taken from article PMC12673918, “Design, Synthesis, and Selective Antiproliferative Activity of Indolizine Derivatives as Microtubule Destabilizers” (Archiv Der Pharmazie, 2025).
Where two headings read alike, the source gives them in different places.

Experiments:
CAL‐27 (oral carcinoma) = assay: Resazurin cell viability assay, CAL‐27; assay type: cell-based; conditions: Homo sapiens, CAL-27
Description: (§1) The tongue squamous cell carcinoma cell line CAL‐27 (ATCC CRL‐2095), breast carcinoma BT‐20 (ATCC HTB‐19), gastric carcinoma HGC‐27 (BCRJ Code 0310), and normal oral fibroblast OHMF (culture of fibroblasts derived from human oral healthy mucosa, approved by the Research Ethics Committee of the University of São Paulo, Campus of Ribeirão Preto, Brazil (with protocol number 049) were cultured in DMEM medium (DMEM, Sigma‐Aldrich, St. Louis, MO, USA) supplemented with 10% fetal bovine serum and a solution of penicillin (100 U/mL) and streptomycin (100 μg/mL). The cultures were maintained in a humidified incubator with 5% CO₂ at 37°C.
(§2) Cell viability was analyzed using the resazurin assay. For this, cells were seeded in 96‐well plates (1 × 10^3 cells per well) and incubated at 37°C with 5% CO₂ overnight for cell adhesion. Subsequently, the cells were treated with different compounds (0–50 µM) for 72 h. After treatment, the medium was replaced with phenol‐free DMEM medium (Sigma‐Aldrich) containing resazurin at a concentration of 44 µM (Sigma‐Aldrich). After incubation for 4 h at 37°C, fluorescence detection was performed (excitation 530/25 nm, emission 590/35 nm) using a microplate fluorimeter (Synergy 2, Biotek). Initial cell growth inhibition assays were performed in triplicate or quadruplicate, while IC50 determinations were conducted in triplicate. Data were plotted, and IC₅₀ values were determined by nonlinear regression using GraphPad Prism software 9.0.
(§3) ^a Cell viability was assessed using the resazurin assay after 72 hours of compound treatment. Fluorescence was measured to estimate % of cellular growth inhibition at 50 µM values, based on triplicate experiments.
(§4) ^b IC50 values were determined using the same resazurin-based assay, with fluorescence measurements performed after 72 hours of treatment. These experiments were carried out in triplicate.

[1] = test system: BT‐20 breast cancer cells; assay: Cell‐cycle assay by flow cytometry; assay type: cell-based; conditions: 2.5 µM, 24 h
Description: BT‐20 cells were seeded in 10 cm plates (1.5 × 10⁶ cells/plate) and incubated at 37°C with 5% CO₂ for 24 h. Subsequently, the cells were treated with different compounds at a concentration of 2.5 µM for 24 h. After treatment, the cells were collected by centrifugation and fixed in cold 70% ethanol for 1 h at 4°C. The cells were then washed, collected by centrifugation, and treated with RNase A (100 μg/mL, Sigma‐Aldrich) for 30 min at 37°C, followed by staining with propidium iodide (50 μg/mL) for 15 min at 37°C. Finally, the percentages of cells in each phase of the cell cycle were determined using FACSCalibur flow cytometry (BD Biosciences—San Jose, CA, USA). Cell‐cycle distribution was analyzed using ModFit LT V3.3 software.

[2] = test system: MKN‐45 (gastric carcinoma) cells; conditions: cited from earlier work
[3] = test system: HGC‐27 (gastric carcinoma); assay: Resazurin cell viability assay, HGC‐27; assay type: cell-based; conditions: Homo sapiens, HGC-27
Description: as §1, §2, §3, §4

GNP15 = assay: Resazurin cellular growth inhibition, GNP15; assay type: cell-based; conditions: 72 hours, triplicate; read-out: IC50 (nM, Cellular growth inhibition) GNP15 (supplement)
Description: as §4

[4] = test system: OHMF (non‐tumoral oral fibroblast); assay: Resazurin cell viability assay, OHMF fibroblasts; assay type: cell-based; conditions: Homo sapiens, 72 h, n = 3
Description: as §1, §2

tubulin [5] = assay: Tubulin polymerization (inhibition) assay kit; assay type: biochemical; conditions: for IC50: n = 2
Description: To evaluate the effect of the compounds on tubulin polymerization, the Tubulin Polymerization Assay Kit (Cytoskeleton Inc.) was used according to the manufacturer's instructions. Briefly, 5 µL of the compounds (final concentration ranging from 0.1 to 100 µM) were pipetted per well into a pre‐warmed 96‐well black‐bottom plate at 37°C. After 1 min, 55 µL of the tubulin reaction mix (1X Buffer 1, 0.7X Tubulin Glycerol Buffer, 1 mM GTP, and 2 mg/mL tubulin) was added to each well. Next, after 5 s of shaking, fluorescence detection (excitation: 340–360 nm, emission: 410–460 nm) was performed using a microplate fluorimeter. […] Data were plotted, and IC₅₀ values were determined by nonlinear regression using GraphPad Prism software 9.0.
^c Tubulin polymerization was evaluated using a commercial assay kit, following standard procedures. Compounds were incubated with tubulin, and fluorescence was measured over time to generate kinetic curves and determine the maximum polymerization rate (Vmax). These experiments were carried out in duplicate.

BT‐20 (breast carcinoma) = assay: Resazurin cell viability assay, BT‐20; assay type: cell-based; conditions: Homo sapiens, BT-20
Description: as §1, §2, §3, §4

tubulin [6] = test system: tubulin; parameters: method as in PMID 37895970; conditions: read-out: IC50 for tubulin destabilization (literature); cited from earlier work
[7] = test system: stomach carcinoma cell line (NUGC3); parameters: method as in PMID 15293996, PMID 23237054; conditions: cited from earlier work
[8] = 72 h, mean ± SD, n = 3, read-out: IC50 (nM) CAL‐27
[9] = 72 hours, triplicate, read-out: IC50 (nM, Cellular growth inhibition) CAL-27 (supplement)
[10] = 72 h, mean ± SD, n = 3, read-out: IC50 (nM) HGC‐27
[11] = 72 hours, triplicate, read-out: IC50 (nM, Cellular growth inhibition) HGC-27 (supplement)
[12] = 72 h, mean ± SD, n = 3, read-out: IC50 (nM) BT‐20
[13] = 72 hours, triplicate, read-out: IC50 (nM, Cellular growth inhibition) BT-20 (supplement)

SMILES | IC50 (CAL‐27 (oral carcinoma); [8]) [nM] | IC50 (CAL‐27 (oral carcinoma); [9]) [nM] | IC50 [3, 10] [nM] | IC50 [3, 11] [nM] | IC50 (tubulin [5]) [µM] | IC50 (BT‐20 (breast carcinoma); [12]) [nM] | IC50 (BT‐20 (breast carcinoma); [13]) [nM] | growth inhibitory activity against NUGC3 [7] | further results
COc1ccc(N(C)c2nc(C)nc3ccccc23)cc1 [Verubulin, reference compound] | 2 ± 0.3 | 3 ± 0.4 | 3 ± 0.4 | 5 ± 0.7 | 3.2 | 5 ± 0.7 | 2 ± 0.3 |  | IC50 (tubulin [6]): 3.2 ± 0.7 µM
COc1ccc(/C=C\c2cc(OC)c(OC)c(OC)c2)cc1O [Combretastatin A-4, combretastatin A‐4] |  |  |  |  |  |  |  | no appreciable effect | 

Second part, led by results:

IC50 (CAL‐27 (oral carcinoma); [8]) [nM] | IC50 (CAL‐27 (oral carcinoma); [9]) [nM] | IC50 [3, 10] [nM] | IC50 [3, 11] [nM] | IC50 (tubulin [5]) [µM] | IC50 (BT‐20 (breast carcinoma); [12]) [nM] | IC50 (BT‐20 (breast carcinoma); [13]) [nM] | SMILES | growth inhibitory activity against NUGC3 [7] | further results
105 ± 21 | 475 ± 105 | 475 ± 105 | 111 ± 28 | 14.8 | 111 ± 28 | 105 ± 21 | COc1ccc2c(C(=O)c3cc(OC)c(OC)c(OC)c3)ccn2c1 [Compound 7f, (6‐methoxyindolizin‐1‐yl)(3,4,5‐trimethoxyphenyl)methanone] |  | inhibition at 50 µM (CAL‐27 (oral carcinoma); 72 h, mean ± SD, n = 3, read-out: % Cellular growth inhibition (at 50 µM) CAL‐27): 58 ± 1.3%; cell‐cycle distribution [1]: significant accumulation of cells in the G2/M phase; IC50 ([2]; MKN‐45 gastric cancer cells): 0.08 µM; inhibition at 50 µM ([3]; 72 h, mean ± SD, n = 3, read-out: % Cellular growth inhibition (at 50 µM) HGC‐27): 43 ± 0.7%; IC50 (GNP15): > 50000 nM; IC50 [4]: > 50000 nM; inhibition at 50 µM (BT‐20 (breast carcinoma); 72 h, mean ± SD, n = 3, read-out: % Cellular growth inhibition (at 50 µM) BT‐20): 43 ± 0.8%
2 ± 0.1 | 48 ± 16 | 5 ± 1.4 | 45 ± 7 |  | 4 ± 1.1 | 3 ± 0.6 | COc1ccc2c(C(=O)c3cc(OC)c(OC)c(OC)c3)c[nH]c2c1 [BPR0L075, reference compound] | demonstrated growth inhibitory activity | fold improvement in antiproliferative activity over combretastatin A‐4 ([2]; MKN‐45 cells): > 10 fold
3 ± 0.6 | 5 ± 1.4 | 48 ± 16 | 4 ± 1.1 | 8.2 | 45 ± 7 | 2 ± 0.1 | CC(=O)O[C@H]1C(=O)[C@@]2(C)[C@H]([C@H](OC(=O)c3ccccc3)[C@]3(O)C[C@H](OC(=O)[C@H](O)[C@@H](NC(=O)c4ccccc4)c4ccccc4)C(C)=C1C3(C)C)[C@]1(OC(C)=O)CO[C@@H]1C[C@@H]2O [Paclitaxel, reference compound] |  | inhibition at 2 µM (CAL‐27 (oral carcinoma); 2 μM, 72 h, mean ± SD, read-out: % Cellular growth inhibition CAL‐27, positive control): 54 ± 1.2%; inhibition at 50 µM (CAL‐27 (oral carcinoma); 72 hours, triplicate, read-out: % Cellular growth inhibition (at 50 µM) CAL-27 (supplement)): 54 ± 1.2%; inhibition at 2 µM ([3]; 2 μM, 72 h, mean ± SD, read-out: % Cellular growth inhibition HGC‐27, positive control): 46 ± 1.8%; inhibition at 50 µM ([3]; 72 hours, triplicate, read-out: % Cellular growth inhibition (at 50 µM) HGC-27 (supplement)): 46 ± 1.8%; effect on tubulin polymerization curves (RFU) (tubulin [5]; compounds 5 µM, vs control and paclitaxel): promoted rapid and sustained polymerization; inhibition at 2 µM (BT‐20 (breast carcinoma); 2 μM, 72 h, mean ± SD, read-out: % Cellular growth inhibition BT‐20, positive control): 50 ± 1%; inhibition at 50 µM (BT‐20 (breast carcinoma); 72 hours, triplicate, read-out: % Cellular growth inhibition (at 50 µM) BT-20 (supplement)): 50 ± 1%
